Measured values taken from US9517221B2, “(2R)-2-propyloctanoic acid for functional brain disease” (ONO PHARMACEUTICAL CO., LTD., priority 2006, dated 2016).
Structures can show the parent of a compound that is named as a salt.

Columns and labels:
[1] = system: olfactory bulbectomized rats; experiment: Hyperemotional reactivity (hyperemotional score) of olfactory bulbectomized rats; format: in vivo, rat; set-up: key to Hyperemotional score (mean ± S. E.), One day administration, Before administration / Hyperemotional score (mean ± S. E.), One day administration, After administration / Hyperemotional score (mean ± S. E.), Seven days administration, Before administration / Hyperemotional score (mean ± S. E.), Seven days administration, After administration: irritability score per Gomita et al. (1983) criteria
Experimental: SPF rats (Crlj: WI) were used in the test. The animal for olfactory bulbectomy was anesthetized with pentobarbital sodium (Nembutal R Injection, Dainippon Pharmaceutical, dose: 1 mL/kg (intraperitoneal administration)), and the head was fixed using a brain stereotaxic apparatus (ASI Instruments, Inc., NARISHIGE). After incising the head skin, holes are opened at right and left olfactory bulb regions of the skull using a dental drill (manufactured by MINITOR), and the right and left olfactory bulbs were removed by sucking them using an aspirator connected to a tip-removed oral sonde, and the head skin was stitched thereafter. In this connection, in the case of the animals for sham-operation, anesthesia, brain fixation and head skin incision were carried out in the same manner as in the animals for olfactory bulbectomy, holes are opened at right and left olfactory bulb regions of the skull and the head skin was stitched without carrying out suction removal of the olfactory bulbs. The rats after olfactory bulbectomy were put into a series of five stainless steel cages, each of which was partitioned into two parts with an acrylic board for individual rearing space, and individually reared under a dark condition. The rats were subjected to the following tests of (2) and (3).
• (a) Sham-operation group (12 animals); • (b) Vehicle control group (12 animals); • (c) 3 mg/kg administration group (12 animals) of (2R)-2-propyloctanoic acid; • (d) 10 mg/kg administration group (12 animals) of (2R)-2-propyloctanoic acid; • (e) 10 mg/kg administration group (12 animals) of Milnacipran hydrochloride. [Drug Administration]
As shown below, drug solution or vehicle was administered once a day for 8 days, a total of 8 times, at a respective liquid dose of 5 mL/kg. • (a) Sham-operation group: vehicle (0.1% by volume Tween 80) aqueous solution; • (b) Vehicle control group: vehicle (0.1% by volume Tween 80) aqueous solution; • (c) 3 mg/kg administration group of (2R)-2-propyloctanoic acid: a drug solution in which (2R)-2-propyloctanoic acid was prepared to be 0.6 mg/mL with the vehicle; • (d) 10 mg/kg administration group of (2R)-2-propyloctanoic acid: a drug solution in which (2R)-2-propyloctanoic acid was prepared to be 2.0 mg/mL with the vehicle; • (e) 10 mg/kg administration group of milnacipran hydrochloride: a drug solution in which Milnacipran hydrochloride was prepared to be 2.3 mg/mL with the vehicle (Milnacipran itself is included in 2.0 mg/mL). (2) Examination of the Activity for Hyperemotional Reactivity <Evaluation Method>
Evaluation of the hyperemotional reactivity was carried out (1) before the grouping, (2) from 1 hour to 1 hour and 10 minutes after administration of the 1 day drug administration, (3) before administration of the 7 days administration and (4) from 1 hour to 1 hour and 10 minutes after the administration (a total of 4 times), by scoring the degree of irritability once a rat in accordance with the following evaluation criteria of hyperemotional reactivity (hyperemotional score: prepared based on the method of Gomita et al. (Folia Pharmacologica Japonica, 82, 267, 1983). Additionally, all of the conditions of the evaluation were shot and recorded using a video camera (SSC-DC430, SONY) and handled as reference data.

[2] = system: olfactory bulbectomized rats; experiment: Anxiolytic behavior on elevated plus maze of olfactory bulbectomized rats; format: in vivo, rat; conditions: dose 10 mg/kg once a day for 8 days; 5 minutes test 1 hour after 8 days administration
Experimental: SPF rats (Crlj: WI) were used in the test. The animal for olfactory bulbectomy was anesthetized with pentobarbital sodium (Nembutal R Injection, Dainippon Pharmaceutical, dose: 1 mL/kg (intraperitoneal administration)), and the head was fixed using a brain stereotaxic apparatus (ASI Instruments, Inc., NARISHIGE). After incising the head skin, holes are opened at right and left olfactory bulb regions of the skull using a dental drill (manufactured by […]), and the right and left olfactory bulbs were removed by sucking them using an aspirator connected to a tip-removed oral sonde, and the head skin was stitched thereafter. In this connection, in the case of the animals for sham-operation, anesthesia, brain fixation and head skin incision were carried out in the same manner as in the animals for olfactory bulbectomy, holes are opened at right and left olfactory bulb regions of the skull and the head skin was stitched without carrying out suction removal of the olfactory bulbs. The rats after olfactory bulbectomy were put into a series of five stainless steel cages, each of which was partitioned into two parts with an acrylic board for individual rearing space, and individually reared under a dark condition. The rats were subjected to the following tests of (2) and (3). • (a) Sham-operation group (12 animals); • (b) Vehicle control group (12 animals); • (c) 3 mg/kg administration group (12 animals) of (2R)-2-propyloctanoic acid; • (d) 10 mg/kg administration group (12 animals) of (2R)-2-propyloctanoic acid; • (e) 10 mg/kg administration group (12 animals) of Milnacipran hydrochloride. [Drug Administration] As shown below, drug solution or vehicle was administered once a day for 8 days, a total of 8 times, at a respective liquid dose of 5 mL/kg. • (a) Sham-operation group: vehicle (0.1% by volume Tween 80) aqueous solution; • (b) Vehicle control group: vehicle (0.1% by volume Tween 80) aqueous solution; • (c) 3 mg/kg administration group of (2R)-2-propyloctanoic acid: a drug solution in which (2R)-2-propyloctanoic acid was prepared to be 0.6 mg/mL with the vehicle; • (d) 10 mg/kg administration group of (2R)-2-propyloctanoic acid: a drug solution in which (2R)-2-propyloctanoic acid was prepared to be 2.0 mg/mL with the vehicle; • (e) 10 mg/kg administration group of milnacipran hydrochloride: a drug solution in which Milnacipran hydrochloride was prepared to be 2.3 mg/mL with the vehicle (Milnacipran itself is included in 2.0 mg/mL). (2) Examination of the Activity for Hyperemotional Reactivity <Evaluation Method> Evaluation of the anxiolytic behavior on an elevated plus maze was carried out once per animal for 5 minutes from 1 hour to 1 hour and 10 minutes after 8 days of the administration, in accordance with the following method. Each animal was softly put on a platform of elevated plus maze which is described later, toward one of the open arms. Thereafter, behavior of the animal was shot using a video camera (CCD-DC430, SONY) set up the elevated plus maze, and the images were analyzed by a video image behavior analyzing device (Etho Vision, manufactured by Noldus). Additionally, the images from the video camera were recorded and handled as reference data. In this connection, when the animal fell, it was regarded as staying on the open arm, and the animal was quickly returned to the place or the open arm where it was present just before the falling. The evaluation was carried out on the respective items shown by A to H (A: frequency of approach to the open arm, B: frequency of approach to the closed arm, C: frequency of approach to the platform, D: stayed time (second) on the open arm, E: stayed time (second) on the closed arm, F: stayed time (second) on the platform, G: defecation frequency on the open arm, platform and closed arm, and H: urination frequency on the open arm, platform and closed arm), by measuring A to F using the video image behavior analyzing device, and by measuring G and H after completion of the measurement. […]

## CCN(CC)C(=O)C1(c2ccccc2)CC1CN (stereo not drawn) [Milnacipran hydrochloride, reference compound]
[1]; dose 10 mg/kg once a day, 1 hour to 1 hour 10 minutes after 7 days administration
  Hyperemotional score (mean ± S. E.), Seven days administration, After administration: 7.6 ± 0.8
[1]; dose 10 mg/kg once a day, before administration of the 7 days administration
  Hyperemotional score (mean ± S. E.), Seven days administration, Before administration: 10.2 ± 1.1
[1]; dose 10 mg/kg, 1 hour to 1 hour 10 minutes after 1 day administration
  Hyperemotional score (mean ± S. E.), One day administration, After administration: 14.3 ± 1.0
[1]; dose 10 mg/kg, baseline before grouping, 12 animals
  Hyperemotional score (mean ± S. E.), One day administration, Before administration: 20.0 ± 0.0
[2]
  Time (seconds) stayed on closed arm (mean ± S. E.): 196.0 ± 19.8 s
  Time (seconds) stayed on open arm (mean ± S. E.): 72.7 ± 18.3 s
